The assay concerns the target Urease (Canavalia ensiformis, UniProt P07374). Nature of the assay: Urease Inhibition Assay. Conditions: pH 8.2. On the procedure:
The urease inhibitory activity of synthesized sulfonamides (3a-j) was determined by measuring the amount of ammonia produced by the indophenols method described byWeatherburn (27,28). The reaction mixtures, comprising 20 µL of enzyme (Jack bean urease, 5 U/mL) and 20 µL of test compounds in 50 µL buffer (100 mM urea, 0.01 MK2HPO4, 1 mM EDTA and 0.01 M […], pH 8.2), were incubated for 10 min at 37 °C in 96-well plate. Briefly, 40 µL each of phenol reagents (1%, w/v phenol and0.005%, w/v sodium nitroprusside) and 70 µL of alkali reagent (0.5%, w/v NaOH and 0.1% active chloride NaOCl) were added to each well. […] All reactions were performed in triplicate.

Chain of Urease (P07374 whole entry): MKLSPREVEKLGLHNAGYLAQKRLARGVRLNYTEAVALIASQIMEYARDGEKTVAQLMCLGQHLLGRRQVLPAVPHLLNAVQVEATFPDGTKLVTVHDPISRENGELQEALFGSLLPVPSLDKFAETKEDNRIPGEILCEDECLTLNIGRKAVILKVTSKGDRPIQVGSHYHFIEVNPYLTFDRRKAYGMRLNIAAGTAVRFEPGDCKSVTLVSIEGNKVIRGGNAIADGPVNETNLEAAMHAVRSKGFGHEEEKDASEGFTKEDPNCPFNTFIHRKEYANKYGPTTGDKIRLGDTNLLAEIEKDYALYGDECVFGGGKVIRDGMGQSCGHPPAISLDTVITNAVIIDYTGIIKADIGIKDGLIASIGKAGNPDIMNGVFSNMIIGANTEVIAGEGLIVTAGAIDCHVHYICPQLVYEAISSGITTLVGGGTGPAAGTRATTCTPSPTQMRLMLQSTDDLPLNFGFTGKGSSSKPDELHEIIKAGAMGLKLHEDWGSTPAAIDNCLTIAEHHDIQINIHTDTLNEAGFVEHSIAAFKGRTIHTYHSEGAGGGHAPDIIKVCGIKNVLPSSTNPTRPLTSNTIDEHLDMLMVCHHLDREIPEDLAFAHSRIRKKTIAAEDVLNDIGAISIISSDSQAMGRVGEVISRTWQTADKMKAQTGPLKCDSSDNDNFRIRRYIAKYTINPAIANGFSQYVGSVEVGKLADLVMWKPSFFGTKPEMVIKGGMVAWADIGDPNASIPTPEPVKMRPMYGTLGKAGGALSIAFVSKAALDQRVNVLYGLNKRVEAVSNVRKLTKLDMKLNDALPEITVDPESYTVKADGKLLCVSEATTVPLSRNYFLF

Molecule `Cc1cs/c(=N\C(=O)c2ccco2)n1-c1ccc(S(N)(=O)=O)cc1` [(Z)-N-(3-(4-aminosulfonylphenyl)-4-methylthiazol-2(3H)-ylidene) furan-2-carboxamide (3j)] showed an IC50 of 83 nM. This lies in the double-digit nanomolar range.

Molecule `Cc1cccc(C(=O)/N=c2\scc(C)n2-c2ccc(S(N)(=O)=O)cc2)c1` [(Z)-N-(3-(4-aminosulfonylphenyl)-4-methylthiazol-2(3H)-ylidene)-3-methylbenzamide (3c)] yielded an IC50 of 87 nM. The value for `COc1cccc(C(=O)/N=c2\scc(C)n2-c2ccc(S(N)(=O)=O)cc2)c1` [(Z)-N-(3-(4-aminosulfonylphenyl)-4-methylthiazol-2(3H)-ylidene)-3-methoxybenzamide (3g)] was 81 nM; that for `Cc1ccccc1C(=O)/N=c1\scc(C)n1-c1ccc(S(N)(=O)=O)cc1` [(Z)-N-(3-(4-aminosulfonylphenyl)-4-methylthiazol-2(3H)-ylidene)-2-methylbenzamide (3b)] was 87 nM; that for `Cc1ccc(C(=O)/N=c2\scc(C)n2-c2ccc(S(N)(=O)=O)cc2)cc1` [(Z)-N-(3-(4-aminosulfonylphenyl)-4-methylthiazol-2(3H)-ylidene)-4-methylbenzamide (3d)] was 72 nM. As to `Cc1cs/c(=N\C(=O)c2ccccc2[N+](=O)[O-])n1-c1ccc(S(N)(=O)=O)cc1` [(Z)-N-(3-(4-aminosulfonylphenyl)-4-methylthiazol-2(3H)-ylidene)-2-nitrobenzamide (3f)], it took 350 nM to reach half-maximal inhibition (IC50). For `Cc1cs/c(=N\C(=O)c2cccc(F)c2)n1-c1ccc(S(N)(=O)=O)cc1` [(Z)-N-(3-(4-aminosulfonylphenyl)-4-methylthiazol-2(3H)-ylidene)-3-fluorobenzamide (3h)] the value was 64 nM; for `Cc1cs/c(=N\C(=O)c2ccc([N+](=O)[O-])cc2Cl)n1-c1ccc(S(N)(=O)=O)cc1` [(Z)-N-(3-(4-aminosulfonylphenyl)-4-methylthiazol-2(3H)-ylidene)-2-chloro-4-nitrobenzamide (3i)], 58 nM.

`Cc1cs/c(=N\C(=O)c2ccccc2)n1-c1ccc(S(N)(=O)=O)cc1` [(Z)-N-(3-(4-aminosulfonylphenyl)-4-methylthiazol-2(3H)-ylidene) benzamide (3a)] registered an IC50 of 96 nM. The value for `Cc1cs/c(=N\C(=O)c2ccc([N+](=O)[O-])cc2)n1-c1ccc(S(N)(=O)=O)cc1` [(Z)-N-(3-(4-aminosulfonylphenyl)-4-methylthiazol-2(3H)-ylidene)-4-nitrobenzamide (3e)] was 83 nM.

A word on the IC50: it is the concentration that gives 50% inhibition. A lower IC50 goes with greater potency.

For the origin of these results see BindingDB's records for doi:10.1111/cbdd.12675 (Quaid-I-Azam University, 2016).
